Experimental data taken from publication PMC9447362.
Read-outs that look alike come from different tables or passages of the source.

Columns and labels:
Vero E6 cells [1] = test: Cell viability, SRB assays; details: Vero E6 cells, SRB assays
[2] = Cell viability, SRB assays; details: African green monkey
SARS-CoV-2 [3] = test: In vivo antiviral studies in SARS-CoV-2-infected Syrian hamsters
Protocol: The in vivo antiviral studies were carried out in an ABSL3 facility in Changchun
Veterinary Research Institute, Chinese Academy of Agricultural Sciences. All animal
studies were performed in strict accordance with the guidelines set by the Chinese
Regulations of Laboratory Animals and Laboratory Animal-Requirements of
Environment and Housing Facilities. All animals used in this study were chosen
antiviral in SARS-CoV-2 infection. First, we use a model of Syrian hamsters; and
second, we used a model of human angiotensin-converting enzyme 2 (hACE2)-KI/IOZ
10) or saline (n = 5) 1 h prior to infection. Then the hamsters were anesthetized and
infected intranasally with 105 TCID50 of SARS-CoV-2. For the low challenge dose
For the high challenge dose
The conditions of hamsters
including body weight were monitored daily until sacrifice. 3 days post infection (dpi),
the hamsters were humanely euthanized. The nasal wash, nasal tissues and lung tissues
were harvested for viral titration and pathological examination. Briefly, the nasal
tissues and lung tissues were weighed, and 1 gram of each tissue was placed into 1
mL of PBS containing 100 U/mL penicillin, making 10% weight/volume
homogenates. The tissue samples were homogenized by Tissue Lyser (QIAGEN,
Germany) and centrifuged at 8,000 rpm. The supernatants were then collected and
inoculated into Vero E6 cells, and viral RNA copy numbers and viral titration were
determined by qRT-PCR and TCID50, respectively. Meanwhile, the lungs were fixed
in formalin, and the fixed tissues were embedded in paraffin and stained with H&E
for pathological examination.
therapeutic treatment in vivo, the hamsters were pre-infected with the virus (105
intraperitoneal, i.p., 15 mg/kg)) 1 h prior to infection. Then the hamsters were
anesthetized and infected intranasally with 105 TCID50 of SARS-CoV-2. The conditions
of hamsters including body weight were monitored daily until sacrifice. 3 dpi, the
hamsters were humanely euthanized. The nasal wash, nasal tissues and lung tissues
were harvested for viral titration and pathological examination.
Lung histological analysis
Lung histological analysis was examined by an experienced pathologist. H&E stained
sections of lung from hamsters and mice were examined by implementing a semi
quantitative, 5 point grading scheme (0-within normal limits, 1-mild, 2-moderate,

SARS-CoV-2 [4] = test: microbe, parasite or virus in culture; assay type: cell-based; details: for EC50: read-out: EC50 (half-maximal effective doses), antiviral; for EC90: read-out: EC90 (90% maximal effective doses), antiviral; for protein levels of nucleoprotein, Vero E6 cells: western blotting
[5] = 30 mg/kg i.n. once daily for 7 consecutive days
P3 G4 = assay type: cell-based, SARS-CoV-2; details: 10 μM, HEK293T cells
P4 G4 [6] = test: Protein expression from pCAG-Flag vector with P4-WT or P4-Mut in HeLa and HEK293T cells (western blotting); assay type: cell-based, SARS-CoV-2; details: concentration-dependent
SARS-CoV-2 [7] = assay type: cell-based, SARS-CoV-2 (BetaCoV/Beijing/IME-BJ05-2020); details: for protein levels of nucleoprotein, Calu-3 cells: western blotting
P4 G4 (P4-WT RNA) = test: CD spectra and CD melting of P4-WT with G4-specific ligands; assay type: binding, SARS-CoV-2
Protocol: For CD spectra and CD melting experiments, the DNA or RNA oligonucleotide samples pre-heated at 95 °C for 10 min were slowly cooled to room temperature, and then were incubated at 4 °C for 24 h. The samples were detected by JASCO J-810 spectropolarimeter equipped with a temperature-controlled water bath. In CD melting experiments, versus temperatures were collected at a heating rate of 1 °C/min.

P4 G4 [8] = assay type: cell-based, SARS-CoV-2; details: 10 μM TMPyP4 or 2.5 μM PDP
P14 G4 = test: RNA replication assay, RNA with P14 G4 in HEK293T cells; assay type: cell-based, SARS-CoV-2
[9] = cited from earlier work
P1 = assay type: cell-based, SARS-CoV-2; details: 10 μM, HEK293T cells
[10] = hamster plasma, 30 mg/kg i.n., single dose
RNA with P4 G4 = test: Cell-based RNA replication assays with SARS-CoV-2 RdRp (nsp12, nsp7, nsp8) in HEK293T cells, qRT-PCR; details: compared with P4-Mut, dose-dependent
Source text: Cell-based RNA replication assay system was applied[43]–[45]. The plasmids nsp12, nsp7 and nsp8 were used to express codon-optimized Flag-nsp12, Flag-nsp7 and Flag-nsp8, respectively, all of which contain a Flag tag at the C-terminus. To generate the SARS-CoV-2 transcripts with P4 G4 site for RNA replication assays, 5’ untranslated region (UTR)-P4 G4 -3’ UTR was first synthesized, then inserted into the pGEM-T esay vector. And the SARS-CoV-2 RNA with P4 G4 site was produced using T7 RNA polymerases from a standard in vitro transcription kit.
HEK293T cells were transfected with the RNA with P4 G4 site, nsp12, nsp7, and nsp8 plasmids at the ratio of 1:10:30:30. At 12 h post transfection, cells were re-seeded in 24-well plates (4 × 10^4/well) and treated with PDP or TMPyP4. After 48 h incubation, cells were collected and measured for RNA levels by qRT-PCR assays.

P2 G4 = assay type: cell-based, SARS-CoV-2; details: 10 μM, HEK293T cells
P4 G4 [11] = test: In vitro translation (IVT) assays; assay type: biochemical, SARS-CoV-2
P13 G4 = test: RNA replication assay, RNA with P13 G4 in HEK293T cells; assay type: cell-based, SARS-CoV-2
P6 G4 = assay type: cell-based, SARS-CoV-2; details: 10 μM, HEK293T cells
SARS-CoV-2 [12] = details: mouse, in vivo
in vitro = details: African green monkey
Vero E6 cells [13] = details: African green monkey
[14] = hamster, 15 mg/kg i.p., day 3 after infection
[15] = Severe acute respiratory syndrome coronavirus 2, Vero C1008, Vero E6 cells, 10^3 TCID50 virus/mL, 72 h post infection, viral RNA copies/mL
[16] = dose-dependent, 72 h post infection

CCC(CC)COC(=O)[C@H](C)N[P@](=O)(OC[C@H]1O[C@@](C#N)(c2ccc3c(N)ncnn23)[C@H](O)[C@@H]1O)Oc1ccccc1 [remdesivir]
CC10 (10% cytotoxic concentration) (Vero E6 cells [1]): 1.04 µM | CC50 [2]: > 100 µM | maximal viral RNA copies reduction in the nasal wash, nasal turbinate and lung tissues (SARS-CoV-2 [3]; [14]): 1 log10 | viral titers reduction in the nasal wash, nasal turbinate and lung tissues (SARS-CoV-2 [3]; [14]): ~ 1.5 log10 | maximal viral titers reduction in the culture supernatant of Vero E6 cell (SARS-CoV-2 [4]; 72 h post infection, TCID50): ~ 3 log10 | maximal viral RNA copies reduction in the Vero E6 cell culture supernatant (SARS-CoV-2 [4]; 72 h post infection, qRT-PCR): ~ 4 log10 | maximal viral RNA copies reduction in the Vero E6 cell lysate (SARS-CoV-2 [4]; 72 h post infection, qRT-PCR): 3 log10 | EC50 (SARS-CoV-2 [4]; [15]): 1.33 µM | EC90 (SARS-CoV-2 [4]; [15]): 2.42 µM | SI (selectivity index) (SARS-CoV-2 [4]; Vero E6 cells, CC50/EC50): > 75.19 | viral RNA copies and viral titers in Vero E6 cells (SARS-CoV-2 [4]; [16]): significantly reduced viral RNA copies and viral titers

C[n+]1ccc(-c2c3nc(c(-c4cc[n+](C)cc4)c4ccc([nH]4)c(-c4cc[n+](C)cc4)c4nc(c(-c5cc[n+](C)cc5)c5ccc2[nH]5)C=C4)C=C3)cc1 [TMPyP4, 5,10,15,20-tetrakis-(N-methyl-4-pyridyl)porphine]
CC10 (10% cytotoxic concentration) (Vero E6 cells [1]): 727.7 µM | CC50 (Vero E6 cells [1]; read-out: CC50 (half-cytotoxic concentration)): > 1000 µM | toxicity in hamsters [5]: no noticeable toxicity in the hamsters | toxicity in the lung tissues of hamsters [5]: no noticeable toxicity in the lung tissues of hamsters | EGFP expression, P3-EGFP (P3 G4): inhibited EGFP expression | protein levels of P4-WT (P4 G4 [6]): decreased the protein levels of P4-WT | protein levels of nucleoprotein, Calu-3 cells (SARS-CoV-2 [7]; 100 μM): significantly suppress the protein levels of nucleoprotein | mRNA expression of pro-inflammatory cytokines and chemokines (SARS-CoV-2 [7]; Calu-3 cells, 100 μM, qRT-PCR): decrease the mRNA expression of pro-inflammatory cytokines and chemokines | virus infection in Calu-3 cells (SARS-CoV-2 [7]; human lung epithelial Calu-3 cells): inhibited virus infection efficiently | effect on the thermal stability of P4 G4 (P4 G4 (P4-WT RNA)): significantly enhanced the thermal stability | P4-WT EGFP fluorescence intensity (P4 G4 [8]): inhibited the P4-WT EGFP fluorescence intensity | P4-Mut EGFP fluorescence intensity (P4 G4 [8]): not P4-Mut | RNA replication, RNA with P14 G4 (P14 G4): suppressed RNA replication | toxicity in the animals for short-term treatment [9]: no noticeable toxicity | antiviral synergy with remdesivir in hamsters (SARS-CoV-2 [3]; TMPyP4 15 mg/kg i.n. combined with remdesivir 15 mg/kg i.p.): did not exhibit antiviral synergy with remdesivir in hamsters | decrease of mean viral loads (viral RNA copies/mL and TCID50/mL) in nasal wash, nasal turbinate and lung tissues (SARS-CoV-2 [3]; hamster, in vivo): 2–4 log10 | lung damage (histopathology) (SARS-CoV-2 [3]; hamster, in vivo): significantly ameliorate lung damage | mRNA expression of inflammatory-associated genes in the lungs (SARS-CoV-2 [3]; hamster, in vivo): reduced mRNA expression of inflammatory-associated genes in the lungs | maximal viral RNA copies reduction in the nasal wash, nasal turbinate and lung tissues (SARS-CoV-2 [3]; hamster, in vivo, 15 mg/kg): ~ 3 log10 | viral titers reduction in the nasal wash, nasal turbinate and lung tissues (SARS-CoV-2 [3]; hamster, in vivo, 15 mg/kg): ~ 3.5 log10 | lung damage, therapeutic treatment (SARS-CoV-2 [3]; hamster, in vivo, 30 mg/kg): could ameliorate lung damage | viral loads in nasal wash, nasal turbinate and lung tissues, therapeutic treatment (SARS-CoV-2 [3]; hamster, in vivo, 30 mg/kg): significantly decreased the viral loads | EGFP expression, P1-EGFP (P1): not P1 | Cmax [10]: 17880 ng/mL | area under the curve (AUC) [10]: 167.32 h⋅μg/mL | half-life (T1/2) [10]: 6.36 h | SI (selectivity index) (SARS-CoV-2 [4]): > 112.74 | antiviral activity of TMPyP4 after pre-transfection of ASOs targeting viral G4s (SARS-CoV-2 [4]): significantly inhibited by ASO targeting viral G4s | maximal viral RNA copies reduction in the Vero E6 cell culture supernatant (SARS-CoV-2 [4]): ~ 7 log10 | maximal viral RNA copies reduction in the Vero E6 cell lysate (SARS-CoV-2 [4]): ~ 6 log10 | maximal viral titers reduction in the culture supernatant of Vero E6 cell (SARS-CoV-2 [4]): ~ 6 log10 | viral RNA copies and viral titers in Vero E6 cells (SARS-CoV-2 [4]): significantly reduced viral RNA copies and viral titers | viral loads in Vero E6 cells pre-infected with SARS-CoV-2 (SARS-CoV-2 [4]): significantly decreased the viral loads | protein levels of nucleoprotein, Vero E6 cells (SARS-CoV-2 [4]; 100 μM): significantly suppress the protein levels of nucleoprotein | time-of-addition: stage of action (SARS-CoV-2 [4]; Vero E6 cells, 100 μM): functioned at a stage post SARS-CoV-2 entry | antiviral synergy with remdesivir in vitro (SARS-CoV-2 [4]; combination of TMPyP4 and remdesivir): did not exhibit antiviral synergy | EC50 (SARS-CoV-2 [4]): 8.87 µM | EC90 (SARS-CoV-2 [4]): 13.2 µM | replication of P4-WT RNA (RNA with P4 G4): significantly inhibit the replication of P4-WT | EGFP expression, P2-EGFP (P2 G4): inhibited EGFP expression | IVT of P4-WT (P4 G4 [11]): inhibited the IVT of P4-WT | RNA replication, RNA with P13 G4 (P13 G4): suppressed RNA replication | EGFP expression, P6-EGFP (P6 G4): inhibited EGFP expression | viral loads in the nasal turbinate and lung tissues (SARS-CoV-2 [12]): significantly decreased the viral loads in the nasal turbinate and lung tissues

C[n+]1ccccc1-c1c2nc(c(-c3cccc[n+]3C)c3ccc([nH]3)c(-c3cccc[n+]3C)c3ccc([nH]3)c(-c3cccc[n+]3C)c3nc1C=C3)C=C2 [TMPyP2]
protein levels of P4-WT (P4 G4 [6]): no effects | protein levels of nucleoprotein, Calu-3 cells (SARS-CoV-2 [7]; 100 μM): not TMPyP2 | effect on the thermal stability of P4 G4 (P4 G4 (P4-WT RNA)): no effects on the thermal stability | P4-WT EGFP fluorescence intensity (P4 G4 [8]): no effects | protein levels of nucleoprotein, Vero E6 cells (SARS-CoV-2 [4]; 100 μM): not TMPyP2 | replication of P4-WT RNA (RNA with P4 G4): no effects

NCCOc1cc(C(=O)Nc2cc(OCCN3CCCC3)c3ccccc3n2)nc(C(=O)Nc2cc(OCCN3CCCC3)c3ccccc3n2)c1 [PDP]
protein levels of P4-WT (P4 G4 [6]): decreased the protein levels of P4-WT | effect on the thermal stability of P4 G4 (P4 G4 (P4-WT RNA)): significantly enhanced the thermal stability | P4-WT EGFP fluorescence intensity (P4 G4 [8]): inhibited the P4-WT EGFP fluorescence intensity | P4-Mut EGFP fluorescence intensity (P4 G4 [8]): not P4-Mut | CC50 (in vitro): 4.9 µM | CC10 (10% cytotoxic concentration) (Vero E6 cells [13]): 2.84 µM | SI (selectivity index) (SARS-CoV-2 [4]): 7.78 | EC50 (SARS-CoV-2 [4]; [15]): 0.63 µM | EC90 (SARS-CoV-2 [4]; [15]): > 2 µM | viral RNA copies and viral titers in Vero E6 cells (SARS-CoV-2 [4]; [16]): significantly reduced viral RNA copies and viral titers | replication of P4-WT RNA (RNA with P4 G4): significantly inhibit the replication of P4-WT | IVT of P4-WT (P4 G4 [11]; P4-WT): inhibited the IVT of P4-WT
